US20240300894A1, “PRODRUGS OF KV7 CHANNEL OPENERS” (Xyzagen, Inc., priority 2021, published 2024)

How the values were obtained:
[1] = Acid and organic solution stability, HPLC-UV 250 nm; details: for Colour of solution: by Day 9; for Degradation / conversion to ezogabine in solution: up to 3 weeks, acidic solutions and organic solvents; for Ezogabine Area: room temp., normal light
Method: An HPLC-UV Vis method was developed using 0.1% Formic acid in water as mobile phase A and 0.1% Formic acid in acetonitrile as mobile Phase B. A gradient method was developed ramping from 10% A to 90% B over 8 minutes and then returning to 10% A at 8.5 minutes on a 4.6×50 mm Zorbax C-18 column. Injections of 10 uL of stability solutions were injected for analyte detection.
[…] Aliquots were collected at serial time points and then diluted to a nominal concentration of 100 ug/mL for injection to the HPLC and 250 nm monitored by the diode array detector. Data at approximately 10 days is presented.
Aliquots were collected at serial time points and then diluted to a nominal concentration of 100 ug/mL for injection to the HPLC and 250 nm monitored by the diode array detector.
(§1) It was also evaluated at 2 N HCl at 37° C. Aliquots were collected at serial time points and then diluted to a nominal concentration of 100 ug/mL for injection to the HPLC and 250 nm monitored by the diode array detector.
as §1, §1, §1

[2] = human, in vivo; cited from earlier work
[3] = in solvent, exposed to light; known; cited from earlier work
[4] = Pharmacokinetics of ezogabine prodrugs in mouse (SC, PO); details: male mice, PO 20 mg/kg, plasma
Method: (§2) Blood was diluted by 10% with these stabilizers.
(§3) Extraction of the molecules was conducted by taking a 50 uL aliquot of plasma and adding 200 uL of acetonitrile containing 200 ng/mL tolbutamide as the internal standard. Samples were precipitated in a 96 well plate, centrifuges and an aliquot transferred to a new plate, dried down under heat and nitrogen and then reconstituted in the initial mobile phase conditions of the LC-MS/MS method. […] A standard curve was prepared from 5000 ng/mL to 1 ng/mL for each analyte. Concentration data from the bioanalytical run was analyzed by Phoenix Winnonlin version 8 for noncompartmental sparse sampling PK analysis, plotting of concentration time curves and tabulation of PK parameters.
Animals were asphyxiated by carbon dioxide gas, blood was collected by cardiac stick and they were euthanized by cervical dislocation.

[5] = Pharmacokinetics of ezogabine prodrugs in rat (IV, IM, PO); details: male Sprague Dawley rats, PO 20 mg/kg
Method: as §2
as §3, with “noncompartmental” for “noncompartmental sparse sampling”
150 uL of blood were collected at predesignated time points. At completion of the study animals were asphyxiated by carbon dioxide gas and exsanguinated for euthanasia.

[6] = Benchtop solution stability exposed to light, HPLC-UV 230 nm; assay type: physicochemical
Method: Compounds in solvent were left on the benchtop exposed to light for up to 7 days since it is known that Compound 1 will degrade with light within 3-7 days.
Stability was assessed by taking an aliquot from the solubility vials at each test day. A single replicate was injected for each test condition.
Samples were injected onto an HPLC system with an aqueous mobile phase and acetonitrile organic phase and compounds were separated on a C8 50×2 mm column. Wavelength 230 nm was monitored for absorption and integrated for peak area while the mass spectrometer was used to confirm mass. Samples were tested on Day 1 and on subsequent days through Day 7.

[7] = system: CCI model of neuropathic pain; assay: CCI model of neuropathic pain (pin prick, von Frey); assay type: in vivo, rat; details: male Sprague Dawley rats
Method: Compound 3 was tested for reversal of mechanical hypersensitivity to the pin prick test for hindlimb paw withdraw and the von Frey hairs for gram force mechanical allodynia in the CCI model of neuropathic pain. Male Sprague Dawley rats (n=8/group) were tested for baseline sensitivity on Day 1 (ipsilateral and contralateral paws) and administered XYG-203 orally; 40 mg/kg on Day 1, 20 mg/kg Day 3, 10 mg/kg Day 5, 5 mg/kg Day 7, 1 mg/kg Day 10 and baseline on Day 12. Mechanical hypersensitivity was tested 1 h after pretreatment. Data (mean±SD) were analyzed with a repeated measures ANOVA with Dunnet's adjustment for multiple comparisons.

[8] = Drug concentration analysis after MES in CF-1 mice; details: for Plasma concentration of Compound 1 relative to administration of Compound 1 alone: CF-1, mouse, in vivo, ip
Excerpt: (§4) Each male CF-1 mouse provided one data point in the MES assay and one data point in the concentration analysis. There were 8 mice per time point.

[9] = Rat PK at equimolar dose to Ezogabine in 0.5% methylcellulose; details: for AUClast/D, analyte = dosed prodrug: male, rat, in vivo, 20 mg/kg; for Exposure of ezogabine compared with ezogabine itself (dose normalized AUC): rats, equimolar dose to Ezogabine (20 mg/kg)
Method: (§5) Blood samples were collected at the same time points over 24 hours to generate a concentration time profile. Two male rats were dosed per group. Plasma samples were analyzed by LC/MS/MS and the resulting concentration time profiles and PK parameters are provided.
as §5, §5

[10] = system: 5% formalin intraplantar injection; assay: Formalin inflammatory model (hind paw flicks/licks); assay type: in vivo, mouse; details: 100 mg/kg in water SC 30 minutes before 5% formalin; both phases (0-10 min, 15-40 min)
Method: Compound 4 was assessed in the rat formalin inflammatory model. The number of flicks/licks of a male CD-1 mouse in the acute phase 0-10 minute and the inflammatory phase from 15-40 min after intraplantar administration of 50 μL of 5% formalin was recorded. […] Data is presented over the duration of the observation periods in 2 minute bins.

MES Induced Seizures [11] = assay: Maximal electroshock (MES) test in SD rats; assay type: in vivo, rat; details: IM 75 mg/kg
Method: All treatments were at 0.083, 0.25, 0.5, 1, 2, 4, and 8 hours prior to the administration of MES test, where 6 seconds where 6 seconds without a seizure was considered protected.

[12] = rat, 6 h, 1000 ng/mL
Method: Plasma was collected by the biomaterial vendor and kept frozen at −20° C.
The samples were analyzed by HPLC separation and mass spectrometry detection for prodrug amount, relative to a baseline time 0 control sample. Triplicate samples were generated at each time point and the peak area response was averaged and converted to a percent of baseline control.

MES induced seizures [13] = assay: Maximal electroshock (MES) test in CF-1 mice; assay type: in vivo, mouse; details: IP 1.5, 3, 6, 12 and 24 mg/kg
Method: All treatments were administered 30 minutes prior to MES, except for Phenytoin which was administered 1 h prior.
as §4

Question: Which results are given for CCOC(=O)Nc1ccc(NCc2ccc(F)cc2)cc1N [Compound 1, Ezogabine]?
Answer: Day by which solution was turning light purple (indicating degradation) ([1]; 5 mg/mL, acid solutions, room temperature): up to 2 Day; Day at which solution began turning purple ([1]; 5 mg/mL, organic solvent solutions, room temperature): ≥ 7 days; Adverse reaction rate: abnormal coordination [2]: 7%; Adverse reaction rate: aphasia [2]: 4%; Adverse reaction rate: asthenia [2]: 5%; Adverse reaction rate: balance disorder [2]: 4%; Adverse reaction rate: blurred vision [2]: 5%; Adverse reaction rate: confusional state [2]: 9%; Adverse reaction rate: diplopia [2]: 7%; Adverse reaction rate: disturbance in attention [2]: 6%; Adverse reaction rate: dizziness [2]: 23%; Adverse reaction rate: dysarthria [2]: 4%; Adverse reaction rate: fatigue [2]: 15%; Adverse reaction rate: gait disturbance [2]: 4%; Adverse reaction rate: memory impairment [2]: 6%; Adverse reaction rate: somnolence [2]: 22%; Adverse reaction rate: tremor [2]: 8%; Adverse reaction rate: vertigo [2]: 8%; Time within which compound degrades with light [3]: 3 to 7 days; Cmax/D, analyte Cmpd 1 [4]: 148 ng/mL/mg/kg; AUClast/D, analyte Cmpd 1 ([4]; AUClast 6 h): 190 ng·h/mL/mg/kg; Cmax/D, analyte Cmpd 1 [5]: 44.8 ng/mL/mg/kg; AUClast/D, analyte Cmpd 1 ([5]; AUClast […] h): 280 ng·h/mL/mg/kg

Question: What does the source list for CCOC(=O)Nc1ccc(NCc2ccc(F)cc2)cc1NC(=O)OC(C)OC(=O)C(C)C (stereo not shown) [Compound 3]?
Answer: Stability in solvent ([6]; 0.1 N HCl, over 4 days): appears to be stable; Stability in solvent ([6]; ethanol and methanol): stable through 3 days; Mechanical hypersensitivity versus baseline ([7]; oral 5 mg/kg): 95% confidence intervals did not cross the baseline mean; Gram force to paw lift (von Frey) ([7]; oral 40 mg/kg, 1 h after pretreatment): increased the gram force to paw lift significantly; Reduction of latency of neuropathic ipsilateral paw withdrawal (pin prick) ([7]; oral 40 mg/kg, 1 h after pretreatment, p=0.0003): 9.2 s; Colour of solution ([1]; 5 mg/mL, 0.1 N HCl): turned a light tan; Colour of solution ([1]; 5 mg/mL, 1 N HCl): turned a golden yellow; Solution clear and colorless through ([1]; 5 mg/mL, organic solvents): ≥ 18 days; Degradation / conversion to ezogabine in solution ([1]; 5 mg/mL): converts to ezogabine under acidic conditions but does not in organic solvent; Ezogabine Area ([1]; 0.1N HCl, 433 h): 400 mAU; Ezogabine Area ([1]; Acetonitrile, 435 h): 51 mAU; Ezogabine Area ([1]; Ethanol, 390 h): 43 mAU; Ezogabine Area ([1]; Methanol, 435 h): 41 mAU; Plasma concentration of Compound 1 relative to administration of Compound 1 alone [8]: 5.5 fold; AUClast/D, analyte = dosed prodrug [9]: 0.0136 ng·h/mL/mg/kg

Question: Which results are given for CCOC(=O)Nc1ccc(NCc2ccc(F)cc2)cc1NC(=O)[C@@H](N)CCCCN [Compound 4]?
Answer: Reduction in behavioral response (flicks/licks) compared to vehicle [10]: 50%; Protection from MES seizures (MES Induced Seizures [11]; 2 through 8 hours post dose): fully protected; Protection from MES seizures (MES Induced Seizures [11]; 1 h post dose): almost fully protected; Solution remained clear and colorless through ([1]; 5 mg/mL, all test solutions): ≥ 18 days; Degradation / conversion to ezogabine in solution ([1]; 5 mg/mL): very little degradation to ezogabine; Ezogabine Area ([1]; 0.1N HCl, 269 h): 0 mAU; Ezogabine Area ([1]; 1N HCl, 269 h): 0 mAU; Ezogabine Area ([1]; 2N HCl, 269 h): 38 mAU; Ezogabine Area ([1]; Methanol, 437 h): 0 mAU; Ezogabine Area ([1]; PBS, 435 h): 0 mAU; Plasma concentration of Compound 1 relative to administration of Compound 1 alone [8]: 9 fold; Stability in plasma [12]: stable through 6 hours; AUClast/D, analyte = dosed prodrug [9]: 6.26 ng·h/mL/mg/kg; Exposure of ezogabine compared with ezogabine itself (dose normalized AUC) [9]: similar

Question: Which “Solution remained clear and colorless through” value ([1]; 5 mg/mL, all test solutions) does the source give for CCOC(=O)Nc1ccc(NCc2ccc(F)cc2)cc1NC(=O)[C@H](N)CO [Compound 6] here?
Answer: ≥ 18 days

Question: What about the “Degradation / conversion to ezogabine in solution” value ([1]; 5 mg/mL) of the same compound?
Answer: very little degradation to ezogabine

Question: And the “Ezogabine Area” value ([1]; 1N HCl, 437 h)?
Answer: 58 mAU

Question: What about the “AUClast/D, analyte = dosed prodrug” value [9] of the same compound?
Answer: 199 ng·h/mL/mg/kg

Question: And the “Exposure of ezogabine compared with ezogabine itself (dose normalized AUC)” value [9]?
Answer: similar

Question: What does the source list for CCOC(=O)Nc1ccc(NCc2ccc(F)cc2)cc1NC(=O)C[C@@H](CN)CC(C)C [Compound 28]?
Answer: Solution remained clear and colorless through ([1]; 5 mg/mL, acidic solutions): ≥ 18 days; Solution remained clear and colorless through ([1]; 5 mg/mL, acidic solutions and acetonitrile): ≥ 11 days; Degradation / conversion to ezogabine in solution ([1]; 5 mg/mL): degradation to ezogabine with increasing strength of the acidic solution; Ezogabine Area ([1]; 0.1N HCl, 440 h): 0 mAU; % Remaining ([1]; 440 h, 5 mg/mL): 92.0%; Ezogabine Area ([1]; Methanol, 440 h): 0 mAU; Complete protection against MES induced seizures (MES induced seizures [13]): None of the doses showed complete protection; Concentration of prodrug relative to ezogabine ([8]; CF-1 mice, IP, 30 minutes): present at higher concentrations than ezogabine; AUClast/D, analyte = dosed prodrug [9]: 83.0 ng·h/mL/mg/kg; Exposure of ezogabine compared with ezogabine itself (dose normalized AUC) [9]: lower exposure
